# Experimental data as given in US7119229B2 (priority 2001, dated 2006).
# Like-named read-outs stand apart in the source and are kept apart here.
# Key:
# [1] = system: TA100
# Protocol: (§1) This assay is carried out to test mutagenicity of chemical substances using histidine auxotrophic strains that are one of Salmonella Typhimurium mutants. […] When various mutagens are added to the culture medium, only revertants generated by reverse mutation survive.
# (§2) Ames test was carried out using […]. […] After incubation, the number of revertant colonies was counted. 3 plates were prepared for each test and the average was calculated.
# [2] = system: TA1535
# Protocol: as §1, §2
# [3] = system: TA98
# Protocol: as §1, §2
# [4] = system: TA1537; experiment: Reverse mutation assay (Ames test), TA1537
# Protocol: as §1, §2
# [5] = system: WP2 uvrA strains (tryptophan auxotrophic strains); experiment: Reverse mutation assay (Ames test), E. coli WP2 uvrA
# Protocol: as §1, §2
# [6] = system: ICR mice; experiment: Oral administration toxicity assay; settings: for Days for the test (death) Total: deaths/mice; for Days for the Test (death) 4: day 4
# [7] = system: ICR mice; experiment: Acute (intravenous administration) toxicity assay; settings: for Days for the test (death) 2: day 2; for Days for the test (death) Total: deaths/mice; for Days for the test (death) 1: day 1
# [8] = system: BALB/c mouse spleen cell (responding) and DBA/2 mouse spleen cell (stimulating); format: cell-based
# Protocol: MLR tests were carried out to determine the immunosuppressive effect of an immunosuppressive candidate material. When a responding cell (BALB/c mouse spleen cell) and a stimulating cell (DBA/2 mouse spleen cell) were cultured separately, the cells grew little. On the contrary, when the cells were simultaneously cultured, the cells were proliferated due to induction of an antigen-antibody reaction. The proliferated cells were treated with the immunosuppressive candidate material for measurement of the proliferation inhibitory extent.
# After culturing for 72 hours at a CO2 incubator, a 20 μl MTS solution was added to each well, followed by further culturing for 2 to 4 hours and measuring OD at […] by using ELISA.
# [9] = TA1525 (so in the source), 317.5 μg/Plate
# [10] = TA1525 (so in the source), 625 μg/Plate
# [11] = TA1525 (so in the source), 1250 μg/Plate
# [12] = TA1525 (so in the source), 2500 μg/Plate
# [13] = TA1525 (so in the source), 5000 μg/Plate
# [14] = Positive control group, TA1537, 50 μg/Plate
# [15] = Positive control group, TA100, 0.5 μg/Plate
# [16] = Positive control group, TA1535, 0.5 μg/Plate
structure (smiles),measurement,setting,value
COc1cc2c(c(OC)c1OC)-c1ccc(OC)c(=O)cc1[C@@H](NC(C)=O)CC2 [Colchicine],Colony/Plate S-9 Mixture (+),"[1]; TA100, 317.5 μg/Plate",79 Colony/Plate
same,Colony/Plate S-9 Mixture (−),"[1]; TA100, 317.5 μg/Plate",115 Colony/Plate
same,Colony/Plate S-9 Mixture (+),"[1]; TA100, 625 μg/Plate",76 Colony/Plate
same,Colony/Plate S-9 Mixture (−),"[1]; TA100, 625 μg/Plate",110 Colony/Plate
same,Colony/Plate S-9 Mixture (+),"[1]; TA100, 1250 μg/Plate",100 Colony/Plate
same,Colony/Plate S-9 Mixture (−),"[1]; TA100, 1250 μg/Plate",112 Colony/Plate
same,Colony/Plate S-9 Mixture (+),"[1]; TA100, 2500 μg/Plate",91 Colony/Plate
same,Colony/Plate S-9 Mixture (−),"[1]; TA100, 2500 μg/Plate",115 Colony/Plate
same,Colony/Plate S-9 Mixture (+),"[1]; TA100, 5000 μg/Plate",78 Colony/Plate
same,Colony/Plate S-9 Mixture (−),"[1]; TA100, 5000 μg/Plate",108 Colony/Plate
same,Colony/Plate S-9 Mixture (+),[2]; [9],13 Colony/Plate
same,Colony/Plate S-9 Mixture (−),[2]; [9],18 Colony/Plate
same,Colony/Plate S-9 Mixture (+),[2]; [10],13 Colony/Plate
same,Colony/Plate S-9 Mixture (−),[2]; [10],15 Colony/Plate
same,Colony/Plate S-9 Mixture (+),[2]; [11],7 Colony/Plate
same,Colony/Plate S-9 Mixture (−),[2]; [11],17 Colony/Plate
same,Colony/Plate S-9 Mixture (+),[2]; [12],12 Colony/Plate
same,Colony/Plate S-9 Mixture (−),[2]; [12],17 Colony/Plate
same,Colony/Plate S-9 Mixture (+),[2]; [13],10 Colony/Plate
same,Colony/Plate S-9 Mixture (−),[2]; [13],13 Colony/Plate
same,Colony/Plate S-9 Mixture (+),"[3]; TA98, 317.5 μg/Plate",37 Colony/Plate
same,Colony/Plate S-9 Mixture (−),"[3]; TA98, 317.5 μg/Plate",29 Colony/Plate
same,Colony/Plate S-9 Mixture (+),"[3]; TA98, 625 μg/Plate",32 Colony/Plate
same,Colony/Plate S-9 Mixture (−),"[3]; TA98, 625 μg/Plate",29 Colony/Plate
same,Colony/Plate S-9 Mixture (+),"[3]; TA98, 1250 μg/Plate",33 Colony/Plate
same,Colony/Plate S-9 Mixture (−),"[3]; TA98, 1250 μg/Plate",29 Colony/Plate
same,Colony/Plate S-9 Mixture (+),"[3]; TA98, 2500 μg/Plate",37 Colony/Plate
same,Colony/Plate S-9 Mixture (−),"[3]; TA98, 2500 μg/Plate",24 Colony/Plate
same,Colony/Plate S-9 Mixture (+),"[3]; TA98, 5000 μg/Plate",28 Colony/Plate
same,Colony/Plate S-9 Mixture (−),"[3]; TA98, 5000 μg/Plate",26 Colony/Plate
same,Colony/Plate S-9 Mixture (+),"[4]; TA1537, 317.5 μg/Plate",20 Colony/Plate
same,Colony/Plate S-9 Mixture (−),"[4]; TA1537, 317.5 μg/Plate",17 Colony/Plate
same,Colony/Plate S-9 Mixture (+),"[4]; TA1537, 625 μg/Plate",18 Colony/Plate
same,Colony/Plate S-9 Mixture (−),"[4]; TA1537, 625 μg/Plate",14 Colony/Plate
same,Colony/Plate S-9 Mixture (+),"[4]; TA1537, 1250 μg/Plate",18 Colony/Plate
same,Colony/Plate S-9 Mixture (−),"[4]; TA1537, 1250 μg/Plate",10 Colony/Plate
same,Colony/Plate S-9 Mixture (+),"[4]; TA1537, 2500 μg/Plate",21 Colony/Plate
same,Colony/Plate S-9 Mixture (−),"[4]; TA1537, 2500 μg/Plate",8 Colony/Plate
same,Colony/Plate S-9 Mixture (+),"[4]; TA1537, 5000 μg/Plate",21 Colony/Plate
same,Colony/Plate S-9 Mixture (−),"[4]; TA1537, 5000 μg/Plate",9 Colony/Plate
same,Colony/Plate S-9 Mixture (+),[5]; 317.5 μg/Plate,11 Colony/Plate
same,Colony/Plate S-9 Mixture (−),[5]; 317.5 μg/Plate,10 Colony/Plate
same,Colony/Plate S-9 Mixture (+),[5]; 625 μg/Plate,14 Colony/Plate
same,Colony/Plate S-9 Mixture (−),[5]; 625 μg/Plate,6 Colony/Plate
same,Colony/Plate S-9 Mixture (+),[5]; 1250 μg/Plate,14 Colony/Plate
same,Colony/Plate S-9 Mixture (−),[5]; 1250 μg/Plate,11 Colony/Plate
same,Colony/Plate S-9 Mixture (+),[5]; 2500 μg/Plate,12 Colony/Plate
same,Colony/Plate S-9 Mixture (−),[5]; 2500 μg/Plate,10 Colony/Plate
same,Colony/Plate S-9 Mixture (+),[5]; 5000 μg/Plate,8 Colony/Plate
same,Colony/Plate S-9 Mixture (−),[5]; 5000 μg/Plate,11 Colony/Plate
same,Days for the test (death) Total,[6]; 5 mg/kg,0/5
same,Days for the test (death) Total,[6]; 10 mg/kg,0/5
same,Days for the Test (death) 3,"[6]; 25 mg/kg, day 3",3
same,Days for the Test (death) 4,[6]; 25 mg/kg,1
same,Days for the test (death) Total,[6]; 25 mg/kg,4/5
same,Days for the test (death) 2,"[6]; 50 mg/kg, day 2",3
same,Days for the Test (death) 4,[6]; 50 mg/kg,1
same,Days for the Test (death) 5,"[6]; 50 mg/kg, day 5",1
same,Days for the test (death) Total,[6]; 50 mg/kg,5/5
same,Days for the test (death) 2,[7]; 2 mg/kg,3
same,Days for the Test (death) 3,"[7]; 2 mg/kg, day 3",1
same,Days for the test (death) 6,"[7]; 2 mg/kg, day 6",1
same,Days for the test (death) Total,[7]; 2 mg/kg,5/5
same,Days for the test (death) 1,[7]; 5 mg/kg,1
same,Days for the test (death) 2,[7]; 5 mg/kg,4
same,Days for the test (death) Total,[7]; 5 mg/kg,5/5
same,Days for the test (death) 1,[7]; 10 mg/kg,4
same,Days for the test (death) 2,[7]; 10 mg/kg,1
same,Days for the test (death) Total,[7]; 10 mg/kg,5/5
"Nc1c2ccccc2nc2ccccc12 [Compound 9-AA, 9-aminoacridine]",Colony/Plate S-9 Mixture (+),[4]; [14],588 Colony/Plate
same,Colony/Plate S-9 Mixture (−),[4]; [14],175 Colony/Plate
COc1cc2c(c(OC)c1OC)-c1ccc(SC)c(=O)cc1[C@@H](NC(=O)c1cccc(CCl)c1)CC2 [Compound 9],immunosuppressive effect,[8],good immunosuppressive effect
"COc1cc2c(c(OC)c1OC)-c1ccc(S(C)(=O)=O)c(=O)cc1C(NC(=O)CCCO[N+](=O)[O-])CC2 (stereo not drawn) [Compound 10, 4-nitrooxy-N-(1,2,3-trimethoxy-10-methylsulfonyl-9-oxo-5,6,7,9-tetrahydro-benzo[a]heptarene-7-yl)-butylamide]",immunosuppressive effect,"[8]; MLR, FIG. 1",good immunosuppressive effect
COc1cc2c(c(OC)c1OC)-c1ccc(SC)c(=O)cc1[C@@H](NC(=O)c1ccc(CO[N+](=O)[O-])cc1)CC2 [Compound 11],immunosuppressive effect,[8],good immunosuppressive effect
"[N-]=[N+]=[N-] [Sodium azide, sodium azide]",Colony/Plate S-9 Mixture (+),[1]; [15],616 Colony/Plate
same,Colony/Plate S-9 Mixture (−),[1]; [15],453 Colony/Plate
same,Colony/Plate S-9 Mixture (+),[2]; [16],444 Colony/Plate
same,Colony/Plate S-9 Mixture (−),[2]; [16],279 Colony/Plate
